Experimental data taken from patent publication US20200146989A1, “A CO-AMORPHOUS FORM OF A SUBSTANCE AND A DIPEPTIDE” (University of Copenhagen, priority 2016, published 2020).
Where “and” joins values, the source holds several entries; their conditions need not be identical. Equal entries are not always repeated.

Columns and labels:
Format in all cases: physicochemical
[1] = Intrinsic dissolution rate (IDR) of compressed disks; details: 0.01M phosphate buffer pH 7.2, 37° C., 100 rpm, triplicate
Procedure: For the intrinsic dissolution rate (IDR) studies, 150 mg of powder was compressed directly into stainless steel cylinders, which served as IDR sample holders, with a hydraulic press (Hydraulische Presse Model IXB-102-9, PerkinElmer, Ueberlingen, Germany). Disks of pure crystalline drug, pure amorphous drug, and the co-amorphous blends of respectively drug-AA, drug-AA-AA and drug-dipeptide, shown in table 1.1, were compressed at different compaction pressures between 124.9 MPa and 249.7 MPa for 60 seconds in order to obtain a stable compact with smooth surface.
For the dissolution experiment an Erweka DT70 dissolution tester (Erweka GmbH, Heusenstamm, Germany) was used. […] The samples were analyzed with the respective HPLC method for the different drugs as described below. […]
The IDR was calculated as the drug release per accessibility area (μg cm^−2). For this purpose the drug concentration at the different time points was analyzed with HPLC (μg mL-^1), multiplied with 900 ml and divided with the accessible surface area of the drug.
For the pure drugs the accessible area, was set to be the surface area of the compact (0.7854 cm^2). […] The corrected accessible surface area was calculated based on the accessibility area within the mixture. […] From the calculated drug volume and the total volume of the tablet the relative drug volume percentage could be determined. […]

[2] = Ease of amorphization by ball milling, checked by XRPD; set-up: key to Success in amorphization (yes/no): yes=y; no=n
Procedure: Amorphous and co-amorphous systems of the pure drugs and the binary and ternary mixtures with the amino acids or ASPA were prepared by vibrational ball milling.
The samples were prepared by placing a total amount of 500 mg of either the pure crystalline drug, mixtures of drug with one or two amino acids (molar ratio of either 1:1 or 1:1:1) or drug-dipeptides (1:1 molar ratio) in 25 ml milling jars containing two 12 mm stainless steel balls. The samples were milled at 30 Hz up to 180 min in an oscillatory ball mill (Mixer Mill MM400, Retch GmbH & Co, Haan, Germany) placed in a cooling room at 6° C.
(§1) The X-ray powder diffraction (XRPD) analysis was performed using a X'Pert Pro X-ray Diffractometer (PANalytical, Almelo, The Netherlands) using a Cu Kα radiation source (λ=1.54187 Å). An acceleration voltage and current of 45 kV and 40 mA were used. Samples were scanned in reflection mode between 5° and 35° 2θ with a scan speed of 0.0673° 2θ/s and a step size of 0.0262°. Data were collected and analyzed using the software X'Pert Data Collector (PANalytical, Almelo, The Netherlands). Samples were filled onto aluminum sample holders and gently compressed with a spatula, in order to contain a compacted and smooth surface.

[3] = Powder dissolution, miniaturized USP 2 set-up; details: 0.1 M phosphate buffer pH 6.8, 37° C.; for MEB concentration released after 20 min of dissolution: 100 rpm, 5 mg MEB in 100 ml
Procedure: Powder dissolution studies were performed in an ERWEKA DT70 dissolution tester (Heusenstamm, Germany) equipped with a custom-made miniaturized dissolution set-up described earlier [DOI: 10.1208/s12249-008-9161-6]. This set-up is a down-scaled version (the vessel size is 250 mL) of USP apparatus 2, and the hydrodynamics is essentially similar to the standard USP 2 apparatus. Pure drugs, drug-ASPA mixtures or drug-dipeptide mixtures containing an equivalent amount of 5 mg of MEB or 5 mg of TAD in total were placed in 100 ml of 0.1 M phosphate buffer (pH 6.8, 37° C.) and stirred at a rotation speed of 100 rpm. At predetermined time points (2, 5, 10, 20, 30, 60, 120, 180, 240, 300 and 360 min), 1 ml sample was withdrawn and immediately replaced with pre-warmed dissolution buffer. The obtained samples were quantified after filtration (0.45 μm) with the respective HPLC method for the different drugs as described below. All dissolution experiments were conducted in triplicate.
All samples from the dissolution studies were analyzed on a Dionex (Germering, Germany) HPLC system equipped with a P680 pump, an ASI-100 automated sample injector and a PDA 100 photodiode array detector was used. A reverse-phase Kinetex C18 ([…]×4.6 mm, 5 μm) column with UV detection at 240 nm for CRV, 264 nm for IND, 312 nm for MEB and 285 nm for TAD was used, with a constant flow rate of 1.0 ml min^−1 and an isocratic solvent system. The mobile phases (MP) consisted of 50% (V/V) phosphoric acid (pH=2) and 50% MeOH for the analysis of CRV, 25% (V/V) phosphoric acid (pH=2) and 75% MeOH for the analysis of IND, 47% (V/V) of 0.05 M KH2PO4, 20% (V/V) of acetonitrile and 33% (V/V) methanol for the analysis of MEB, 60% (V/V) 0.0724 M pH 6.8 phosphate buffer and 40% (V/V) of acetonitrile for the analysis of TAD, respectively. Chromatograms were analyzed by using Chromeleon Version 7.1.3.2425 software. […]

[4] = Physical stability of amorphous and co-amorphous samples on dry storage, recrystallization detected by XRPD; details: for Stability at room temperature / Stability at 40° C.: dry conditions, amorphous halo in XRPD
Procedure: as §1, with “a X'Pert Pro X-ray” left out, “Å).” for “Å).”, “surface. The pure amorphous drugs and co-amorphous mixtures were stored under dry conditions in desiccators at room temperature and 40° C.” for “surface.”

COc1ccccc1OCCNCC(O)COc1cccc2[nH]c3ccccc3c12 (centres unmarked) [CRV, Carvedilol]
intrinsic dissolution rate (IDR) ([1]; listed as amorphous CRV): 0.0086±0.001 mg cm^−2 min^−1 and 0.009±0.001 mg cm^−2 min^−1 | Success in amorphization (yes/no) ([2]; IND and CRV samples, ball milled 90 or 180 min, XRPD): y

COC(=O)Nc1nc2ccc(C(=O)c3ccccc3)cc2[nH]1 [MEB, Mebendazole]
MEB concentration released after 20 min of dissolution ([3]; listed as amorphous MEB): 0.99 µg/mL | concentration after 240 min of dissolution as fold of crystalline MEB ([3]; 240 min): approx. 4.3 fold | Stability at room temperature ([4]; MEB and TAD): >2 months | Milling time fully amorphization ([2]; MEB samples, XRPD at 30, 60, 90 and 180 min of ball milling): 60 min | Success in amorphization (yes/no) ([2]; MEB samples, ball milled, XRPD at 30, 60, 90 and 180 min): y

CN1CC(=O)N2[C@H](c3ccc4c(c3)OCO4)c3[nH]c4ccccc4c3C[C@@H]2C1=O [TAD, Tadalafil]
Stability at 40° C. ([4]; MEB and TAD): >2 months | Stability at room temperature ([4]; MEB and TAD): >2 months

COC(=O)Nc1nc2ccc(C(=O)c3ccccc3)cc2[nH]1 [crystalline MEB, Mebendazole]
MEB concentration released after 20 min of dissolution [3]: 0.23 µg/mL

COc1ccc2c(c1)c(CC(=O)O)c(C)n2C(=O)c1ccc(Cl)cc1 [IND, Indomethacin]
intrinsic dissolution rate (IDR) [1]: 0.128±0.004 mg cm^−2 min^−1 | Stability at 40° C. ([4]; IND and CRV): <7 days | Stability at room temperature ([4]; IND and CRV): <7 days | recrystallization peaks in the XRPD diffractograms within ([4]; storage at room temperature and 40° C. dry conditions, temperature not split in the sentence): ≤ 7 days
